Assay [1] has as its system mice challenged by heat-killed Escherichia coli. Briefly: LPS and TNF-α levels in blood of mice challenged by heat-killed E. coli. It counts as in vivo, Kunming mice. Conditions: for LPS level in mice blood / TNF-α level in mice blood: 40 mg/kg 10 min after heat-killed E. coli 1.1×10^10 CFU/Kg, various time points, p<0.05 or p<0.01 vs control. The method, then: 8.1 Methods: Supernatant of heat-killed E. coli was prepared according to 2.3.3 items of embodiment 2; absorbance values of the supernatant were assayed at 600 nm (OD600 value 1.0≈1.0×10^10 CFU/ml); a total of 84 Kunming mice, half male and half female, were divided into three groups randomly: heat-killed E. coli control group, KA (40 mg/kg) plus heat-killed E. coli group and KB (40 mg/kg) plus heat-killed E. coli group; each group has 28 mice; after animals were weighed, heat-killed E. coli control group was injected with heat-killed E. coli(1.1×10^10 CFU/Kg); the other two groups were respectively injected with KA or KB (40 mg/kg) at 10 min after injection of heat-killed E. coli(1.1×10^10 CFU/Kg); the total injection of each animal was 200 μl per 20 g body weight; orbital venous blood of mice was collected at time point of 0, 2, 4, 8, 12, 24, 48 and 72 h after injection; LPS level was assayed by kinetic turbidimetric limulus test, and TNF-α was assayed by ELISA.
28.1 Methods: Kunming mice were randomly divided into two groups, and there were 56 mice in each group; heat-killed E. coli was diluted to make 1.0×10^9 CFU/ml suspension, and KB was dissolved to 6 mg/ml with sterile saline; caudal vein injection was adopted; medium group was injected with heat-killed Escherichia coli (0.2 ml per 20 g body weight) and sterile saline (0.2 ml per 20 g body weight); KB treatment groups were injected with heat-killed E. coli suspension S (0.2 ml per 20 g body weight) and KB (0.2 ml per 20 g body weight). Orbital venous blood of mice in medium group and KB treatment group was collected at time point of 0, 4, 8, 12, 24, 48 and 72 h after injection, the specific methods are: mice were killed by cervical dislocation, and immersed in 75% ethanol for skin degerming; the eye of mouse was removed, and blood was collected into a 1.5 ml EP tube; 10 μl blood were added into 190 μl nonpyrogenic water; solution was kept standing for 5-10 min for neutral sedimentation, and centrifuged at 1000 rpm for 10 min; the supernatant was transferred into a new centrifuge tube and stored at −20° C. for further detection; the rest was keep standing until aggregation and serum precipitation, then centrifuged at 3000 rpm for 10 min; the supernatant was transferred into a new centrifuge tube and stored at −20° C. for further detection;
(1) Detection of LPS levels in plasma: 10 μl plasma sample was dissolved in 190 μl sterile saline and mixed. Detection of LPS levels was performed according to the operating procedure of EDS-99 Bacterial Endotoxin Detecting system. Result was expressed by means of mean±standard deviation.
(2) Detection of serum cytokine levels: Because of the small blood volume of mouse, serum was diluted 2 times for detection. Detection of the TNF-α concentration was performed according to the manufacturer's instructions of ELISA kit. Result was expressed by means of mean±standard deviation.

The nature of assay [2]: Affinity biosensor binding with LPS. An excerpt:
Immobilization of lipid A and CpG DNA: Using Optically-Based Affinity Biosensors technology, Lipid A, the biologic active centres of LPS, and CpG DNA were respectively, immobilized on the reacting surfaces of cuvettes in an IAsys plus affinity biosensor according to the manufacturer's instructions of IAsys Affinity Sensor. The end of hydrophobic side chain of lipid A was immobilized on cuvette with hydrophobic surface, and the phosphate group (active group of lipid A) at the other end was floating and exposing to the outside, which act as target spot of binding with active constituents for disease treatment in traditional Chinese medicine. The active constituents in solution were binded to lipid A through electrostatic interaction. Biotinylated CpG DNA was immobilized on the surface of a biotin cuvette by linking to avidin, which had been coated on the surface of a biotin cuvette, and then the unlabeled group of CpG DNA was floating and exposing to the outside, which act as target spot of binding with active constituents for disease treatment in traditional Chinese medicine. The active constituents in solution were binded to CpG DNA through the electrostatic interaction and embodiment.
Detection of the aqueous herbal extract: The crude drugs of 114 traditional Chinese herbs were pulverized. 1 g of each powder was added with 10 ml distilled water, boiled at 100° C. for 1.5 h, centrifuged at 4000 rpm for 20 min, filtrated and then collected the supernatant. 5 μl of aqueous herbal extracts of each herb were used to detect their binding with lipid A or CpG DNA. […]
9.1 Methods: KB was separately diluted with PBS to make solutions of 0.25, 0.5, 1, 2 and 4 μM; 5 μl of each solution was separately loaded; binding reaction of KB of various concentration with LPS and CpG DNA was assayed according to the methods in embodiment 1. The dissociation equilibrium constant (KD) of KB with LPS and CpG DNA was calculated using the IAsys FASTfit software. […]

Where two headings read alike, the source gives them in different places.

`O=C(CCc1ccc(O)c(O)c1)NCCCNCCCCNCCCNC(=O)CCc1ccc(O)c(O)c1` [KA, Kukoamine A]: in assay [1], the “LPS level in mice blood” value is given as “significantly decreased” and the “TNF-α level in mice blood” value is “significantly decreased”.
On to `NCCCN(CCCCNCCCNC(=O)CCc1ccc(O)c(O)c1)C(=O)CCc1ccc(O)c(O)c1` [KB, Kukoamine B], for which the Kd in assay [2] (KB 0.25-4 μM, IAsys FASTfit, read-out: dissociation equilibrium constant (KD) with LPS) was determined as 1240 nM; in assay [2] (with LPS, read-out: dissociation equilibrium constant (KD = kass/kdiss)), 1240 nM. Also, the “LPS level in mice blood” value in assay [1] was “significantly decreased”. The “TNF-α level in mice blood” value in assay [1] is reported as “significantly decreased”. In addition, in assay [1] (sublethal heat-killed E. coli, KB 6 mg/ml, 0.2 ml per 20 g, 4, 8, 12, 24 and 48 h, p<0.05 or p<0.01), the “LPS levels in mice plasma vs heat-killed E. coli control group” value is listed as “significantly lower”. The “TNF-α levels in mice serum vs heat-killed E. coli control group” value in assay [1] (sublethal heat-killed E. coli, KB 6 mg/ml, 0.2 ml per 20 g, 4, 8, 12 and 24 h, p<0.01) was “significantly lower”.
For the compound polymyxin B [PMB, reference compound], the “affinity with LPS” value in assay [2] (4 μM solution, 5 μl loaded) is “high affinity”.

Source of the values: patent US10039729B2, “Use of kukoamine A and kukoamine B” (Tianjin Chase Sun Pharmaceutical Co., Ltd., priority 2010, dated 2018).
